Measurements: patent US20090053722A1, “SDAD ASSAY AND USES THEREOF” (priority 2007, published 2009)
Where “and” joins values, the source holds several entries; their conditions need not be identical. Identical values can stand only once. Entries after “also recorded” stand apart in the source; their conditions may differ. Like-named read-outs stand apart in the source and are kept apart here.

Legend:
[1] = test system: human sperm
Method: (§1) Sperm were isolated from the seminal plasma as previously described in Brown et al., 1995. The sperm pellet was resuspended in phosphate buffered saline (PBS), pH=7.4, and divided into 4 aliquots. Each aliquot (equal sperm concentrations) was incubated at 37° C. in PBS with H2O2 concentrations of 0, 10, 50, and 100 μM for 15 min and 1 hr. All aliquots were divided into 2 portions. One portion was used to determine LPO. The remaining portion was centrifuged at 1500 g for 15 min. at room temperature, the sperm in the pellet resuspended and analyzed in the HSAA.
The HSAA was performed as described by Brown et al. 1995. Briefly, sperm are washed and permeabilized using lysolecithine.
(§2) In a micro-centrifuge tube, the reaction mix was prepared; 8 μl of sperm suspension (200,000 sperm) was added to 100 μLof frog egg extract that contained 8 μl of ^3H-TTP (8 μCi). At 5 and 15 min, and 2 and 3 hr incubation times in the egg extract, 5 μl aliquots were taken, wet mounts prepared, and phase contrast microscopy used to determine the percentage of sperm that were fully decondensed and recondensed, respectively, scoring 50 nuclei per slide. At the 5 and 15 min, and 2 and 3 hr time points, 25 μl aliquots of the reaction mix was removed and mixed with 75 μl PBS. Two 50 μl cytopreps were made for each aliquote as described by Brown et al., 1992. The dried cytopreps were fixed in one part acetic acid, and three parts cold methanol, and Giemsa stained for 1 hr followed by a 10 min wash in Giemsa buffer. Slides were examined using light microscopy and analyzed using Metamorph software. Autoradiography was performed using cytoprep slides as described by Brown et al. 1995.
Sperm chromatin decondensation and nuclear recondensation were evaluated in sperm exposed to increasing concentrations of H2O2 for 15 min and 1 hr using the HSAA. Sperm were analyzed at different incubation times in the egg extract using the image analysis Methamorph software system. The sperm nuclear activation was scored in 5 categories (FIG. 2): 1) full decondensation: sperm diameter 25-30 μm (FIG. 2C), 2) partial decondensation: sperm diameter <25 μm (FIG. 2B), 3) non-decondensed (FIG. 2A), 4) hyperdecondensed: sperm diameter >(25-30 μm) [FIGS. 2b and c], and 5) full recondensation (FIGS. 2D and E).

[2] = test system: human sperm; remark: listed apart in the source
Method: Thymidine incorporation into sperm was scored as follows: unlabeled (less than 5 black granules), medium label (from 5 to 25 black granules), and heavy label (more than 25 black granules). Each value is the mean±SD. […] (5a and 5b) ^3H-TTP incorporation after a 5 min incubation in the egg extract.
as §2
The DNA synthesis was determined by autoradiography as previously described in Materials and Methods.

[3] = test system: human sperm; remark: listed apart in the source
Method: as §1

[4] = test system: sperm; conditions: comet assay; cited from earlier work
[5] = 10 μM H2O2, 15 min and 1 hr exposures, 5 min incubation in egg extract
[6] = 10 μM H2O2, 15 min and 1 hr exposures, 15 min incubation in egg extract
[7] = 50 μM H2O2, 15 min exposure, 2 and 3 hr incubation in egg extract (combined)
[8] = 50 μM H2O2, 15 min exposure, 5 min incubation in egg extract
[9] = 50 μM H2O2, 15 min exposure, 15 min incubation in egg extract
[10] = 50 μM H2O2, 1 hr exposure, 2 and 3 hr incubation in egg extract (combined)
[11] = 50 μM H2O2, 1 hr exposure, 5 min incubation in egg extract
[12] = 50 μM H2O2, 1 hr exposure, 15 min incubation in egg extract
[13] = 100 μM H2O2, 15 min and 1 hr exposures, 5 min incubation in egg extract
[14] = 100 μM H2O2, 15 min exposure, 2 and 3 hr incubation in egg extract (combined)
[15] = 100 μM H2O2, 15 min exposure, 5 min incubation in egg extract
[16] = 100 μM H2O2, 15 min exposure, 15 min incubation in egg extract
[17] = 100 μM H2O2, 1 hr exposure, 2 and 3 hr incubation in egg extract (combined)
[18] = 100 μM H2O2, 1 hr exposure, 5 min incubation in egg extract
[19] = 100 μM H2O2, 1 hr exposure, 15 min incubation in egg extract
[20] = 50 μM H2O2, 15 min exposure, 3 hr incubation in egg extract
[21] = 50 μM H2O2, 1 hr exposure, 2 hr incubation in egg extract
[22] = 50 μM H2O2, 1 hr exposure, 3 hr incubation in egg extract
[23] = 100 μM H2O2, 15 min exposure, 3 hr incubation in egg extract
[24] = 100 μM H2O2, 1 hr exposure, 2 hr incubation in egg extract
[25] = 100 μM H2O2, 1 hr exposure, 3 hr incubation in egg extract

OO [H2O2, hydrogen peroxide]
recondensed sperm ([1]; 10 μM H2O2, 15 min and 1 hr exposure, 2 and 3 hr incubation in egg extract (combined)): 98±2% | partially decondensed sperm [1, 5]: Approximately 30% | recondensed sperm [1, 5]: No recondensed sperm were observed | sperm showing no decondensation [1, 5]: 35-40% | fully decondensed sperm [1, 6]: Approximately 94% | fully decondensed sperm ([1]; 10 μM H2O2, 15 min exposure, 5 min incubation in egg extract): Approximately 28±4% | recondensed sperm ([1]; 10 μM H2O2, 15 min exposure, 15 min incubation in egg extract): No recondensed sperm were observed | fully decondensed sperm ([1]; 10 μM H2O2, 1 hr exposure, 5 min incubation in egg extract): ~30±6% | non-decondensed sperm ([1]; 10 μM H2O2, both time points (15 min and 1 hr exposure), 15 min incubation in egg extract): Approximately 5% | hyper-decondensed sperm ([1]; 10 μM H2O2, 2 and 3 hr incubation in egg extract (combined)): No sperm were hyper-decondensed | hyperdecondensed sperm ([1]; 10 μM H2O2, 5 min incubation in egg extract): No sperm were hyperdecondensed | hyperdecondensed sperm ([1]; 10 μM H2O2, 15 min incubation in egg extract): No sperm were hyperdecondensed | partially decondensed sperm ([1]; 50 μM H2O2, 15 min and 1 hr exposures, 5 min incubation in egg extract): Approximately 1% | hyper-decondensed sperm [1, 7]: 35.2% | recondensed sperm [1, 7]: 66±2.3% | fully decondensed sperm [1, 8]: 43.3±3.7% | hyperdecondensed sperm [1, 8]: 38.4% | non-decondensed sperm [1, 8]: 15±3% | recondensed sperm [1, 8]: No recondensed sperm were observed | fully decondensed sperm [1, 9]: 53±3% | hyperdecondensed sperm [1, 9]: 45.2% | recondensed sperm [1, 9]: No recondensed sperm were observed | hyper-decondensed sperm [1, 10]: 30±2% | recondensed sperm [1, 10]: 70±3% | fully decondensed sperm [1, 11]: 46.6±6% | hyperdecondensed sperm [1, 11]: 31±−4% and 31±4% | non-decondensed sperm [1, 11]: 18±4% | recondensed sperm [1, 11]: 5±3% | fully decondensed sperm [1, 12]: 58±2% | hyperdecondensed sperm [1, 12]: 30±2% | recondensed sperm [1, 12]: 10±2% | non-decondensed sperm [1, 13]: 10±2% | partially decondensed sperm [1, 13]: Approximately 1% | hyper-decondensed sperm [1, 14]: 45±2% | recondensed sperm [1, 14]: 57±2% | fully decondensed sperm [1, 15]: 56.6±4.7% | hyperdecondensed sperm [1, 15]: 26% | recondensed sperm [1, 15]: 8±2% | fully decondensed sperm [1, 16]: 48±1.5% | hyperdecondensed sperm [1, 16]: 37% | recondensed sperm [1, 16]: 15±3% | hyper-decondensed sperm [1, 17]: 45±3% | recondensed sperm [1, 17]: 54±2% | fully decondensed sperm [1, 18]: 64.5±4.5% | hyperdecondensed sperm [1, 18]: 11±4% | recondensed sperm [1, 18]: 15±2% | fully decondensed sperm [1, 19]: 47±2% | hyperdecondensed sperm [1, 19]: 33±3.5% | recondensed sperm [1, 19]: 20±2% | sperm nuclei with abnormal recondensation and nuclear arrest in the hyperdecondensed state ([1]; 50 and 100 μM H2O2, 3 hr incubation in egg extract): 33-42% | non-decondensed sperm ([1]; any other H2O2 concentrations (50, 100 μM) at any of the time points, 15 min incubation in egg extract): no sperm were non-decondensed | 3H-TTP incorporation ([2]; 10 μM H2O2, 15 min and 1 hr exposure, 2 and 3 hr incubations in frog egg extract): normal ^3H-TTP incorporation | sperm positive for 3H-TTP incorporation [2, 5]: No sperm were positive for ^3H-TTP incorporation; also recorded: no incorporation of ^3H-TTP | sperm positive for 3H-TTP incorporation [2, 6]: No sperm were positive for ^3H-TTP incorporation; also recorded: no incorporation of ^3H-TTP | sperm heavily labeled by 3H-TTP ([2]; 10 μM H2O2, 15 min and 1 hr exposures, 2 hr incubation in egg extract): 99±1% | sperm heavily labeled by 3H-TTP ([2]; 10 μM H2O2, 15 min and 1 hr exposures, 3 hr incubation in egg extract): 98±2% | sperm with medium 3H-TTP labeling ([2]; 50 μM H2O2, 15 min exposure (first of '50 and 100 μM for 15 min and 1 hr, respectively'), 2 hr incubation in egg extract): approximately 14.5±4% | sperm heavily labeled by 3H-TTP [2, 8]: 10±3.5% | sperm with medium 3H-TTP labeling [2, 8]: 18±3.5% | sperm heavily labeled by 3H-TTP [2, 9]: 10±2% | sperm with medium 3H-TTP labeling [2, 9]: approximately 20±3% | sperm heavily labeled by 3H-TTP ([2]; 50 μM H2O2, 15 min exposure, 2 hr incubation in egg extract): 85±5% | sperm heavily labeled by 3H-TTP [2, 20]: approximately 78±6% | sperm with medium 3H-TTP labeling [2, 20]: approximately 16.5±2% | sperm heavily labeled by 3H-TTP [2, 11]: 28±2% | sperm with medium 3H-TTP labeling [2, 11]: 36±3% | sperm heavily labeled by 3H-TTP [2, 12]: 17.5±7.5% | sperm with medium 3H-TTP labeling [2, 12]: Approximately 21±5% | sperm heavily labeled by 3H-TTP [2, 21]: 56.5±3% | sperm with medium 3H-TTP labeling [2, 21]: Approximately 36±2% | sperm heavily labeled by 3H-TTP [2, 22]: Approximately 75±3% | sperm with medium 3H-TTP labeling [2, 22]: Approximately 25±3% | sperm with medium 3H-TTP labeling ([2]; 100 μM H2O2 (second of '50 and 100 μM for 15 min and 1 hr, respectively'), 2 hr incubation in egg extract): ~43.5±5% | sperm heavily labeled by 3H-TTP [2, 15]: 15±5% | sperm with medium 3H-TTP labeling [2, 15]: Approximately 25±5% | sperm heavily labeled by 3H-TTP [2, 16]: 50±5% | sperm with medium 3H-TTP labeling [2, 16]: ~30±10% | sperm heavily labeled by 3H-TTP ([2]; 100 μM H2O2, 15 min exposure, 2 hr incubation in egg extract): Approximately 64±2% | sperm heavily labeled by 3H-TTP [2, 23]: ~85±5% | sperm with medium 3H-TTP labeling [2, 23]: ~14.5±3% | sperm heavily labeled by 3H-TTP [2, 18]: 31±3% | sperm with medium 3H-TTP labeling [2, 18]: ~48±2% | sperm heavily labeled by 3H-TTP [2, 19]: 45±9% | sperm with medium 3H-TTP labeling [2, 19]: ~37±9% | sperm heavily labeled by 3H-TTP [2, 24]: ~71±3% | sperm with medium 3H-TTP labeling [2, 24]: ~28.5±2.5% | sperm heavily labeled by 3H-TTP [2, 25]: ~60±4% | sperm with medium 3H-TTP labeling [2, 25]: ~40±4% | lipid peroxidation (MDA and hydroxyalkenals), means compared to the untreated control sperm ([3]; 10, 50 and 100 μM H2O2, 1 hr exposure): significantly different | lipid peroxidation (MDA and hydroxyalkenals), means compared to the untreated control sperm ([3]; 50 and 100 μM H2O2, 15 min exposure): significantly different | H2O2 concentration at which induction of DNA fragmentation was significant [4]: 200 µM
